Several values for one entry are separate records, joined by “and”; a condition that tells them apart may be missing. Equal entries are not always repeated. Inconclusive results and toxic doses are left out. Rule for the calls: active = survival T/C of 150% or more; inactive = T/C below 125% in these data.
System: P388 leukemia ip, CD2F1 mice, survival T/C
Assay: NCI In Vivo Anticancer Drug Screen. Data for tumor model P388 Leukemia (intraperitoneal) in CD2F1 (CDF1) mice
Conditions: endpoint: median survival time, higher = longer survival
Procedure, shortened: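 Mice carrying the transplanted tumor received test compound or vehicle. Survival was recorded in each group, and the value is the treated-group measurement divided by that of the vehicle-treated control group.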

[1] = dose: 50.0 mg/kg/injection, schedule: Q01DX009 (ip), vehicle: saline with Tween-80
[2] = dose: 100.0 mg/kg/injection, schedule: Q01DX009 (ip), vehicle: saline with Tween-80
[3] = dose: 200.0 mg/kg/injection, schedule: Q01DX009 (ip), vehicle: saline with Tween-80
[4] = dose: 60.0 mg/kg/injection, schedule: Q01DX005 (ip), vehicle: saline with Tween-80
[5] = dose: 120.0 mg/kg/injection, schedule: Q01DX005 (ip), vehicle: saline with Tween-80
[6] = dose: 240.0 mg/kg/injection, schedule: Q01DX005 (ip), vehicle: saline with Tween-80
[7] = dose: 100.0 mg/kg/injection, schedule: Q01DX009 (ip), vehicle: saline

Measured: T/C

CCN(CC)C(=O)C1(C)NS(=O)(=O)c2ccccc2C1=O (centres undefined)
inactive: dose: 25.0 mg/kg/injection, schedule: Q01DX009 (ip), vehicle: saline with Tween-80 106 % of control | [1] 98 % of control and 110 % of control and 96 % of control | [2] 98 % of control and 110 % of control and 97 % of control | [3] 95 % of control

N#Cc1ccc(OC(=O)Nc2ccccc2C(F)(F)F)cc1
inactive: [4] 86 % of control | [5] 87 % of control

Cc1cccc(Cl)c1NC1=NCCO1
inactive: dose: 6.25 mg/kg/injection, schedule: Q04DX003 (ip), vehicle: saline with Tween-80 95 % of control | dose: 12.5 mg/kg/injection, schedule: Q04DX003 (ip), vehicle: saline with Tween-80 95 % of control | dose: 25.0 mg/kg/injection, schedule: Q04DX003 (ip), vehicle: saline with Tween-80 100 % of control

O=C1OC(Cl)C(c2ccccc2)=C1c1ccccc1 (centres undefined)
inactive: dose: 100.0 mg/kg/injection, schedule: Q04DX002 (ip), vehicle: saline 96 % of control | dose: 200.0 mg/kg/injection, schedule: Q04DX002 (ip), vehicle: saline 98 % of control | dose: 400.0 mg/kg/injection, schedule: Q04DX002 (ip), vehicle: saline 105 % of control

CCOC(=O)c1ccc(NC(=O)Oc2cc(C)ccc2C)cc1
inactive: dose: 3.75 mg/kg/injection, schedule: Q01DX005 (ip), vehicle: saline with Tween-80 93 % of control | dose: 7.5 mg/kg/injection, schedule: Q01DX005 (ip), vehicle: saline with Tween-80 90 % of control | dose: 15.0 mg/kg/injection, schedule: Q01DX005 (ip), vehicle: saline with Tween-80 90 % of control and 94 % of control | [4] 94 % of control

CCOC(=O)N1c2ccccc2SC1C#N (centres undefined)
inactive: [4] 97 % of control | [5] 92 % of control | [6] 105 % of control

CC1N(/N=C/c2ccccc2)C(c2ccccc2)C(c2ccccc2)N1/N=C/c1ccccc1 (centres undefined)
inactive: dose: 50.0 mg/kg/injection, schedule: Q01DX005 (ip), vehicle: Klucel (hydroxypropylcellulose) (HPC) 99 % of control | dose: 100.0 mg/kg/injection, schedule: Q01DX005 (ip), vehicle: Klucel (hydroxypropylcellulose) (HPC) 98 % of control | dose: 200.0 mg/kg/injection, schedule: Q01DX005 (ip), vehicle: Klucel (hydroxypropylcellulose) (HPC) 99 % of control

COC1=C(Br)[C@H](O)[C@](O)(CC#N)C=C1Br
inactive: dose: 6.25 mg/kg/injection, schedule: Q01DX009 (ip), vehicle: saline 121 % of control | dose: 8.75 mg/kg/injection, schedule: Q01DX009 (ip), vehicle: Klucel (hydroxypropylcellulose) (HPC) 119 % of control | dose: 12.5 mg/kg/injection, schedule: Q01DX009 (ip), vehicle: saline 123 % of control | dose: 25.0 mg/kg/injection, schedule: Q01DX009 (ip), vehicle: saline 118 % of control

N#C/C(=C\C(Cl)=C/c1ccccc1)C(N)=S
inactive: dose: 50.0 mg/kg/injection, schedule: Q01DX009 (ip), vehicle: saline 103 % of control | [7] 100 % of control

COc1cc(CO)ccc1O
inactive: [7] 102 % of control and 105 % of control | dose: 200.0 mg/kg/injection, schedule: Q01DX009 (ip), vehicle: saline 89 % of control and 93 % of control | dose: 400.0 mg/kg/injection, schedule: Q01DX009 (ip), vehicle: saline 99 % of control and 104 % of control | dose: 600.0 mg/kg/injection, schedule: Q01DX009 (ip), vehicle: saline 107 % of control and 89 % of control

COc1ccc(OC)c(C2N(Cc3ccc(N(C)C)cc3)CCCN2Cc2ccc(N(C)C)cc2)c1
inactive: dose: 50.0 mg/kg/injection, schedule: Q04DX003 (ip), vehicle: saline with Tween-80 91 % of control | dose: 100.0 mg/kg/injection, schedule: Q04DX003 (ip), vehicle: saline with Tween-80 91 % of control

COc1ccc(-n2cccc2/C=N\O)cc1OC
inactive: [4] 93 % of control | [5] 94 % of control | [6] 93 % of control

CC(=O)Oc1c(N)c(C)cc(C)c1F
inactive: dose: 1.56 mg/kg/injection, schedule: Q01DX009 (ip), vehicle: saline with Tween-80 101 % of control | dose: 3.12 mg/kg/injection, schedule: Q01DX009 (ip), vehicle: saline with Tween-80 93 % of control | dose: 6.25 mg/kg/injection, schedule: Q01DX009 (ip), vehicle: saline with Tween-80 100 % of control | dose: 12.5 mg/kg/injection, schedule: Q01DX009 (ip), vehicle: saline with Tween-80 96 % of control

CCCCCCCCCCOC(=O)c1ccc(O)cc1
inactive: [1] 97 % of control | [2] 102 % of control | [3] 97 % of control

Source: PubChem BioAssay AID330 (DTP/NCI, 2004)
